In ChEMBL document CHEMBL3112421, “Small Macrocycles As Highly Active Integrin α2β1 Antagonists” (ACS Med Chem Lett, 2014):

Key:
[1] = Permeability across human Caco2 cells; format: ADME, cell-based; conditions: Caco-2, read-out: permeability
[2] = target: Integrin alpha2/beta1 (Homo sapiens, UniProt P05556+P17301); test: Antagonist activity at recombinant integrin alpha2 beta1 receptor (unknown origin) assessed as inhibition of interaction with biotinylated collagen type-1 after 3 hrs by solid phase ELISA-type assay; format: protein-complex assay
Chain of Integrin alpha2/beta1 (P05556 whole entry): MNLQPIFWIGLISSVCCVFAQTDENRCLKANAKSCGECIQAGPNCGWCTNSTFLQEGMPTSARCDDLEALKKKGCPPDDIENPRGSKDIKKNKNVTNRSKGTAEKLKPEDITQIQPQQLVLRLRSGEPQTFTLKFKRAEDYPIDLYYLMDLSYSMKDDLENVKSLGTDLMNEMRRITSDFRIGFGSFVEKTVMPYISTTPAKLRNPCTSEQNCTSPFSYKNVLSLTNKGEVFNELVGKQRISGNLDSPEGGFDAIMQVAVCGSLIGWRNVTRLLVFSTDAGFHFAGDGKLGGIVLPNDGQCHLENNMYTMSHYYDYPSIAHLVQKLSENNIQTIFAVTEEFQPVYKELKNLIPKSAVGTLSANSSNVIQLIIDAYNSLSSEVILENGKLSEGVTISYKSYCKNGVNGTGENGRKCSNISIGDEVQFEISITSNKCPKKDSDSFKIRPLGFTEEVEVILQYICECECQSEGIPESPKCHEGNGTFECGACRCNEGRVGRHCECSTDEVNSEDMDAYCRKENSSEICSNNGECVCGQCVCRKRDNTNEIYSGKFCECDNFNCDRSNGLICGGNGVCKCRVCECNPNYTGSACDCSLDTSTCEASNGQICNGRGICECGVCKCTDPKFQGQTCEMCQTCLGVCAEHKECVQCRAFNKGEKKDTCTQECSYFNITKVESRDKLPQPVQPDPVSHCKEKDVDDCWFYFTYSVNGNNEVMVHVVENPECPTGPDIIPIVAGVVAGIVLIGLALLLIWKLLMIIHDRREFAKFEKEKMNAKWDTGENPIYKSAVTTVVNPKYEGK
Chain of Integrin alpha2/beta1 (P17301 whole entry): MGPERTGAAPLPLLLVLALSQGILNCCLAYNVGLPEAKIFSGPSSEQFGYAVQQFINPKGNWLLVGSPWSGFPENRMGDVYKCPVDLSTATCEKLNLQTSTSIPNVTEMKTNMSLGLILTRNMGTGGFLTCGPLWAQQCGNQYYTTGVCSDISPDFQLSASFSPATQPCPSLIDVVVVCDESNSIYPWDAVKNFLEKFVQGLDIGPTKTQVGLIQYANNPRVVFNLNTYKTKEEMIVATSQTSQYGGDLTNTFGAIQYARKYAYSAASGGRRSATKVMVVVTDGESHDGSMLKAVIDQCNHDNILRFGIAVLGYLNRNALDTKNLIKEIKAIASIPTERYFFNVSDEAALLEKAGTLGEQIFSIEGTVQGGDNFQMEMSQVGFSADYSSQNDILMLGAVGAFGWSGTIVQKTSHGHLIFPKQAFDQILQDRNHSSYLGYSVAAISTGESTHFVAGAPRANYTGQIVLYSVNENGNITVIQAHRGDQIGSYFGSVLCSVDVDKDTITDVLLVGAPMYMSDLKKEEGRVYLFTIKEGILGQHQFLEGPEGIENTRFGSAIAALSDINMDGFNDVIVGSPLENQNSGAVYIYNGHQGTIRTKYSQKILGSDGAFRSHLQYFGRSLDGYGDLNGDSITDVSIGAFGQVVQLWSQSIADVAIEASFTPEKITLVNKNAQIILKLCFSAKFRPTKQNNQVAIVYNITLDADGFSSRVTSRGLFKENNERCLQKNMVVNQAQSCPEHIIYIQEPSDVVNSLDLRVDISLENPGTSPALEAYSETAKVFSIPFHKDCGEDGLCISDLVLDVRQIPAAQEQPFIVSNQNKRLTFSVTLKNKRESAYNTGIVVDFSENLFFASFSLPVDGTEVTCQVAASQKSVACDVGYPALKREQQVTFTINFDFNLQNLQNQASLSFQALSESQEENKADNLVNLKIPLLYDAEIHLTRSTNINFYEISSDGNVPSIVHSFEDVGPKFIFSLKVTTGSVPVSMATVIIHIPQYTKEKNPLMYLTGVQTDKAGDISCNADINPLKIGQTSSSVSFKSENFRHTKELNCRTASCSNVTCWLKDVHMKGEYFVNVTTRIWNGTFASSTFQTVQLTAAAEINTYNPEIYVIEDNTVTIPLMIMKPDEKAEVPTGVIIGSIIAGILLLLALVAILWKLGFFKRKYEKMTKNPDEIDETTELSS

[3] = Plasma concentration in Sprague-Dawley rat at 4.8 mg/kg, iv administered as bolus dose measured after 1 hr by LC-MS/MS analysis; format: ADME, organism-based; set-up: dose 4.8 mg/kg, route intravenous
[4] = Drug excretion in Sprague-Dawley rat bile at 5 mg/kg, iv administered as bolus dose measured after 2 hrs by LC-MS/MS analysis; format: ADME, organism-based; set-up: dose 5 mg/kg, route intravenous; conditions: read-out: Drug excretion
[5] = Drug excretion in Sprague-Dawley rat urine at 4.8 mg/kg, iv administered as bolus dose measured after 24 hrs by LC-MS/MS analysis; format: ADME, organism-based; set-up: dose 4.8 mg/kg, route intravenous; conditions: read-out: Drug excretion
[6] = Volume of distribution at steady state in Sprague-Dawley rat at 4.8 mg/kg, iv administered as bolus dose by LC-MS/MS analysis; format: ADME, organism-based; set-up: dose 4.8 mg/kg, route intravenous; conditions: in vivo, read-out: Vdss
[7] = Initial plasma concentration in Sprague-Dawley rat at 4.8 mg/kg, iv administered as bolus dose by LC-MS/MS analysis; format: ADME, organism-based; set-up: dose 4.8 mg/kg, route intravenous
[8] = Half life in Sprague-Dawley rat at 4.8 mg/kg, iv administered as bolus dose by LC-MS/MS analysis; format: ADME, organism-based; set-up: dose 4.8 mg/kg, route intravenous; conditions: in vivo
[9] = target: Voltage-gated inwardly rectifying potassium channel KCNH2 (Homo sapiens, UniProt Q12809); test: Inhibition of human ERG expressed in CHO cells by patch clamp assay; format: cell-based
[10] = target: T1, Cytochrome P450 3A4 (Homo sapiens, UniProt P08684); test: Induction of CYP3A4 activity (unknown origin) relative to control; format: ADME
T1 sequence (P08684 whole entry): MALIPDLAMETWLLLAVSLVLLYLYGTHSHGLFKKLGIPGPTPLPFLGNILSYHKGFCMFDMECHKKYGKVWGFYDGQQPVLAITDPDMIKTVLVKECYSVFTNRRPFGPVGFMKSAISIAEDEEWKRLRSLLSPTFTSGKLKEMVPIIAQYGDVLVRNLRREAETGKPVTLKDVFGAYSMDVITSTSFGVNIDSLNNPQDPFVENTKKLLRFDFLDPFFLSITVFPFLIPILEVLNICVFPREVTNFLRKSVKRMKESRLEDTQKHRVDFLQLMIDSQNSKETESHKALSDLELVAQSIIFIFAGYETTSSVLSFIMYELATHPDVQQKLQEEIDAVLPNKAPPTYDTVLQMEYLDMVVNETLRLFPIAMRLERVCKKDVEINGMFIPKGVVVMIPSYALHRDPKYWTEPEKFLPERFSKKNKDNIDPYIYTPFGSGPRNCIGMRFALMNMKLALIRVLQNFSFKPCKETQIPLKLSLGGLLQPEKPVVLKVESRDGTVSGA

[11] = target: T2, Cytochrome P450 1A2 (Homo sapiens, UniProt P05177); test: Induction of CYP1A2 activity (unknown origin) relative to control; format: ADME
T2 sequence (P05177 whole entry): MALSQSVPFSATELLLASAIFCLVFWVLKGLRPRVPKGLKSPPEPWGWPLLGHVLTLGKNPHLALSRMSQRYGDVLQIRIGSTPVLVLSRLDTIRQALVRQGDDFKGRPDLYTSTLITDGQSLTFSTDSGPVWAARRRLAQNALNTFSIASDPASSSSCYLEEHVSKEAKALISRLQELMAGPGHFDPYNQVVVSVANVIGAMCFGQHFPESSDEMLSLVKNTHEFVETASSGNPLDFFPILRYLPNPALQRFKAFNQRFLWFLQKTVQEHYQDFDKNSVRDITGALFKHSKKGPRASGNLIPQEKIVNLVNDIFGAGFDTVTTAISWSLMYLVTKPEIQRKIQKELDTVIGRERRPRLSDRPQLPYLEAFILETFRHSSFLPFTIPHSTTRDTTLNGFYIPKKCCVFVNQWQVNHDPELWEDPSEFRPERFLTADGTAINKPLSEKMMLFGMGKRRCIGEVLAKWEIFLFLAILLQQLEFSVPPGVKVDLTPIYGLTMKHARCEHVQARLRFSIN

[12] = target: T3, Cytochrome P450 1A1 (Homo sapiens, UniProt P04798); test: Induction of CYP1A1 activity (unknown origin) relative to control; format: ADME
T3 sequence (P04798 whole entry): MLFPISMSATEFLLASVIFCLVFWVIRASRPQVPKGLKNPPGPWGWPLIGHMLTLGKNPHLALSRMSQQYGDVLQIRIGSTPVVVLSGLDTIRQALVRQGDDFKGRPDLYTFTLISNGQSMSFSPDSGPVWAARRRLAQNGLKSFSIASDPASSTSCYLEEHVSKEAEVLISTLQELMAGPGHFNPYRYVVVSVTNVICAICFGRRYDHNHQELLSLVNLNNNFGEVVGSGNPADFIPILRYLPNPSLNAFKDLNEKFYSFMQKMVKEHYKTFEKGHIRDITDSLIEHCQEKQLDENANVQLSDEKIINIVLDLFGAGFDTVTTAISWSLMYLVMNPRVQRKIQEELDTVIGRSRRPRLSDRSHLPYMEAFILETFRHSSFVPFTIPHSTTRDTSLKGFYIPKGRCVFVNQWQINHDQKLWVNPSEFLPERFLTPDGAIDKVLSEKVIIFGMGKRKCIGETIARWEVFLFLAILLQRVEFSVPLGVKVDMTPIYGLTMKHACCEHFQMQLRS

[13] = target: T1, Cytochrome P450 3A4; test: Inhibition of CYP3A4 (unknown origin) after 10 to 30 mins; format: ADME
[14] = tested on: Plasma; test: Metabolic stability in rat plasma at 100 ng/mL measured after 4 hrs; format: ADME, cell-free
[15] = tested on: Plasma; test: Metabolic stability in mouse plasma at 100 ng/mL measured after 4 hrs; format: ADME, cell-free
[16] = Drug metabolism in Swiss CD-1 mouse liver microsomes at 5 uM after 20 mins; format: ADME, Microsome; conditions: read-out: Drug metabolism
[17] = tested on: Plasma; test: Metabolic stability in human plasma at 100 ng/mL measured after 4 hrs; format: ADME, cell-free
[18] = Drug metabolism in Sprague-Dawley rat liver microsomes at 5 uM after 20 mins; format: ADME; conditions: read-out: Drug metabolism
[19] = Drug metabolism in human liver microsomes at 5 uM after 20 mins; format: ADME; conditions: read-out: Drug metabolism
[20] = Solubility of the compound at pH 7.4 at 25 degC; format: physicochemical; conditions: buffer
[21] = Lipophilicity, log D of the compound at pH 7.4 at 25 degC; format: physicochemical; conditions: buffer
[22] = target: Integrin alpha-5/beta-1 (Homo sapiens, UniProt P05556+P08648); test: Antagonist activity at integrin alpha5beta1 receptor (unknown origin) assessed as inhibition of interaction with biotinylated collagen type-1 after 3 hrs by solid phase ELISA-type assay; format: protein-complex assay
Chain of Integrin alpha-5/beta-1 (P05556 21-798 limits assumed): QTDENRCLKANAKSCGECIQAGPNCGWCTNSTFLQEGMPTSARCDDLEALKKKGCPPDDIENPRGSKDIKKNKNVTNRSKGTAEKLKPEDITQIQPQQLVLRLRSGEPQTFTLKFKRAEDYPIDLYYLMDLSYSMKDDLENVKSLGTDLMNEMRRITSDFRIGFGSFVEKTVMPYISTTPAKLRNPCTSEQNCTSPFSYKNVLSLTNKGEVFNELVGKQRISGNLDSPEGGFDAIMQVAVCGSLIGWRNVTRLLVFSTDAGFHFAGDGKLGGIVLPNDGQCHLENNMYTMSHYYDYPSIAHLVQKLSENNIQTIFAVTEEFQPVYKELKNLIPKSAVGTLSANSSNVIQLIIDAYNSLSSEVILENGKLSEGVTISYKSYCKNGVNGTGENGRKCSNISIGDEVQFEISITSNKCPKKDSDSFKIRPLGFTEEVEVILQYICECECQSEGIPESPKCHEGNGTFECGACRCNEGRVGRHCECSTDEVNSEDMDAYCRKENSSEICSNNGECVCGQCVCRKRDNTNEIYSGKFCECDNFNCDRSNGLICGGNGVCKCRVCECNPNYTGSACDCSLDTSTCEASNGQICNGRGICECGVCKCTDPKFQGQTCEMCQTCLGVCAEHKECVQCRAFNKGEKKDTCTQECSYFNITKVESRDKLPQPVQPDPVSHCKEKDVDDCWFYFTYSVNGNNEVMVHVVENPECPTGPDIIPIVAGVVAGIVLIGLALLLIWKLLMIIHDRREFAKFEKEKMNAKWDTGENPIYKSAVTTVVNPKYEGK
Chain of Integrin alpha-5/beta-1 (P08648 42-894 limits assumed): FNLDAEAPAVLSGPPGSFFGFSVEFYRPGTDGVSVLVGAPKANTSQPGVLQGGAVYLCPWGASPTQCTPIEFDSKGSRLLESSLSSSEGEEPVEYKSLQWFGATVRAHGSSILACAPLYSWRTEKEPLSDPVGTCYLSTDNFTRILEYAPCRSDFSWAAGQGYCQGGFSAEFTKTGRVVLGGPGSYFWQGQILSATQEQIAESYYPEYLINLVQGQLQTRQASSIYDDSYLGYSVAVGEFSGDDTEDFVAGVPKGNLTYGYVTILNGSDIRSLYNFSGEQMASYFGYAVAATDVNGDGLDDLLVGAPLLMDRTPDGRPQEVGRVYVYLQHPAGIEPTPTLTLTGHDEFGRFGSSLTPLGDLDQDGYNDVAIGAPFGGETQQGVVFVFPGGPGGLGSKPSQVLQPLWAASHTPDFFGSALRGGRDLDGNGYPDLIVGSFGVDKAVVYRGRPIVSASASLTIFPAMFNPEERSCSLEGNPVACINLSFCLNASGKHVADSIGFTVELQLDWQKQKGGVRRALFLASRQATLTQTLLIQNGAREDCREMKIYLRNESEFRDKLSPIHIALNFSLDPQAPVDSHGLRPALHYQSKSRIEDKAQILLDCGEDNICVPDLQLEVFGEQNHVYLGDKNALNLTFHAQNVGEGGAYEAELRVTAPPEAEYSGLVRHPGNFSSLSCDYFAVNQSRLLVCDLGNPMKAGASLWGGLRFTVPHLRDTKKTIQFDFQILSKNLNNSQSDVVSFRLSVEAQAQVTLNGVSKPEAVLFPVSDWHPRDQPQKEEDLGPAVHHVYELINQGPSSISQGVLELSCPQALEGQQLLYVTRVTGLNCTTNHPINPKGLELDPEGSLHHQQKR
Chain of Integrin alpha-5/beta-1 (P08648 895-1049 limits assumed): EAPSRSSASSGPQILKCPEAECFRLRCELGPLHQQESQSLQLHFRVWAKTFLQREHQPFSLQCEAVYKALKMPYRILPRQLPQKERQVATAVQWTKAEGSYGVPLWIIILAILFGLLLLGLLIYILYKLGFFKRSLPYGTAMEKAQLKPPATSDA

[23] = target: Integrin alpha1/beta1 complex (Homo sapiens, UniProt P05556+P56199); test: Antagonist activity at integrin alpha1beta1 receptor (unknown origin) assessed as inhibition of interaction with biotinylated collagen type-1 after 3 hrs by solid phase ELISA-type assay; format: protein-complex assay

CCOC(=O)[C@@H]1Cc2cn(cn2)C/C=C/COc2ccc(Cl)c(c2)C(=O)N1
Papp [1]: > 2 ×10⁻⁶ cm/s

COC(=O)[C@@H]1Cc2cn(cn2)C/C=C/COc2ccc(Cl)c(c2)C(=O)N1
Papp [1]: > 2 ×10⁻⁶ cm/s

O=C1N[C@H](C(=O)O)Cc2cccc(c2)OC/C=C/COc2ccc1c(Cl)c2
IC50 [2]: 163 nM

O=C1N[C@H](C(=O)O)Cc2cccc(c2)OCCCCOc2ccc1c(Cl)c2
IC50 [2]: 114 nM

O=C1N[C@H](C(=O)O)Cc2cccc(c2)OC/C=C/COc2ccc(Cl)c1c2
IC50 [2]: 233 nM

O=C1N[C@H](C(=O)O)Cc2cccc(c2)OCCCCOc2ccc(Cl)c1c2
IC50 [2]: 142 nM

O=C1N[C@H](C(=O)O)Cc2cccc(c2)OC/C=C/COc2cccc(Cl)c21
IC50 [2]: 588 nM

O=C1N[C@H](C(=O)O)Cc2cccc(c2)OCCCCOc2cccc(Cl)c21
IC50 [2]: 978 nM

O=C1N[C@H](C(=O)O)Cc2ccc(cc2)OC/C=C/COc2cccc(Cl)c21
IC50 [2]: 178 nM

O=C1N[C@H](C(=O)O)Cc2ccc(cc2)OCCCCOc2cccc(Cl)c21
IC50 [2]: 106 nM

O=C1N[C@H](C(=O)O)Cc2ccc(cc2)OC/C=C/COc2ccc(Cl)c1c2
IC50 [2]: 101 nM

O=C1N[C@H](C(=O)O)Cc2ccc(cc2)OCCCCOc2ccc(Cl)c1c2
IC50 [2]: 731 nM

O=C1N[C@H](C(=O)O)Cc2cccc(c2)OCCCCOc2cccc1c2
IC50 [2]: > 10000 nM

Cc1ccc2cc1C(=O)N[C@H](C(=O)O)Cc1cccc(c1)OCCCCO2
IC50 [2]: 745 nM

Cc1ccc2cc1C(=O)N[C@H](C(=O)O)Cc1cccc(c1)OC/C=C/CO2
IC50 [2]: 1050 nM

O=C1N[C@H](C(=O)O)Cc2cccc(c2)OC/C=C/COc2ccc1c(F)c2
IC50 [2]: > 1000 nM

O=C1N[C@H](C(=O)O)Cc2cccc(c2)OCCCCOc2ccc1c(F)c2
IC50 [2]: > 4000 nM

O=C1N[C@H](C(=O)O)Cc2cccc(c2)OC/C=C/COc2cccc(F)c21
IC50 [2]: > 1000 nM

O=C1N[C@H](C(=O)O)Cc2cccc(c2)OCCCCOc2cccc(F)c21
IC50 [2]: > 1000 nM

COc1cccc2c1C(=O)N[C@H](C(=O)O)Cc1cccc(c1)OCCCCO2
IC50 [2]: > 4000 nM

O=C1N[C@H](C(=O)O)Cc2cccc(c2)OC/C=C/COc2ccc([N+](=O)[O-])c1c2
IC50 [2]: 667 nM

O=C1N[C@H](C(=O)O)Cc2cccc(c2)OC/C=C/COc2cc(C(F)(F)F)c1cn2
IC50 [2]: 1900 nM

O=C1N[C@H](C(=O)O)Cc2cccc(n2)NC/C=C/COc2ccc(Cl)c1c2
IC50 [2]: > 1000 nM

O=C1N[C@H](C(=O)O)Cc2cccc(n2)NCCCCOc2ccc(Cl)c1c2
IC50 [2]: > 1000 nM

O=C1N[C@H](C(=O)O)Cc2ccc(nc2)OC/C=C/COc2ccc(Cl)c1c2
IC50 [2]: 134 nM

O=C1N[C@H](C(=O)O)Cc2ccc(nc2)OCCCCOc2ccc(Cl)c1c2
IC50 [2]: 792 nM

O=C1N[C@H](C(=O)O)Cc2cn(c3ccccc23)C/C=C/COc2ccc(Cl)c1c2
IC50 [2]: 12 nM

O=C1N[C@H](C(=O)O)Cn2cc(nn2)CCCCOc2ccc(Cl)c1c2
IC50 [2]: 1300 nM

O=C1N[C@H](C(=O)O)Cc2cn(nn2)C/C=C/COc2ccc(Cl)c1c2
IC50 [2]: 34 nM

O=C1N[C@H](C(=O)O)Cc2cn(nn2)CCCCOc2ccc(Cl)c1c2
IC50 [2]: 497 nM

Cl.O=C1N[C@H](C(=O)O)Cc2cn(cn2)C/C=C/COc2ccc(Cl)c1c2
concentration at 1 h [3]: < 10 ng/mL
dose excreted at 2 h [4]: 50%
dose excreted at 24 h [5]: 24%
Vd [6]: 3.6 L/kg
C0 [7]: 1700 ng/mL
half-life [8]: 14.4 min
IC50 [9]: > 10000 nM
Activity [10]: < 10%
Activity [11]: < 10%
Activity [12]: < 10%
IC50 [13]: > 30000 nM
Papp [1]: 0.1 ×10⁻⁶ cm/s
Stability [14]: Stable
Stability [15]: Stable
metabolised at 20 min, 5 µM [16]: 0%
Stability [17]: Stable
metabolised at 20 min, 5 µM [18]: 0%
metabolised at 20 min, 5 µM [19]: 3%
solubility [20]: 1540 µg/mL
logD [21]: 0.05
IC50 [22]: 74 nM
IC50 [23]: 33 nM
IC50 [2]: 4 nM

O=C1N[C@H](C(=O)O)Cc2cn(cn2)CCCCOc2ccc(Cl)c1c2
IC50 [2]: 366 nM

O=C1N[C@@H](C(=O)O)Cc2cn(cn2)C/C=C/COc2ccc(Cl)c1c2
IC50 [2]: 909 nM

O=C1N[C@@H](C(=O)O)Cc2cn(cn2)CCCCOc2ccc(Cl)c1c2
IC50 [2]: > 4000 nM

O=C1N[C@H](C(=O)O)Cc2cn(cn2)C/C=C/COc2ccc(Cl)c1c2Cl
IC50 [2]: 869 nM

O=C1N[C@H](C(=O)O)Cc2cn(cn2)C/C=C/COc2ccc(Cl)c1n2
IC50 [2]: 36 nM

O=C1N[C@H](C(=O)O)Cc2ncn(c2Cl)C/C=C/COc2ccc(Cl)c1c2
IC50 [2]: > 4000 nM

O=C1N[C@H](C(=O)O)Cc2cn(cn2)CCCCCOc2ccc(Cl)c1c2
IC50 [2]: 731 nM

O=C1N[C@H](C(=O)O)Cc2cn(cn2)C/C=C/Cc2ccc(Cl)c1c2
IC50 [2]: 176 nM

Cc1cccc(Cl)c1C(=O)N[C@@H](Cc1ccc(NC(=O)c2c(Cl)cccc2Cl)cc1)C(=O)O
IC50 [2]: 214 nM

O=C1N[C@H](C(=O)O)Cn2cc(nn2)C/C=C/COc2ccc(Cl)c1c2 (mixture of isomers)
IC50 [2]: 38 nM

O=C1N[C@H](C(=O)O)Cc2cn(cn2)C/C=C/COc2ccc1c(Cl)c2 (mixture of isomers)
IC50 [2]: 470 nM

O=C1N[C@H](C(=O)O)Cc2cn(cn2)CC/C=C/COc2ccc(Cl)c1c2 (mixture of isomers)
IC50 [2]: 270 nM

O=C1NC(C(=O)O)Cc2ccccc2OCCCCOc2ccc(Cl)c1c2 (racemic)
IC50 [2]: > 4000 nM

O=C1NC(C(=O)O)CCc2cn(cn2)C/C=C/COc2ccc(Cl)c1c2 (racemic)
IC50 [2]: > 5000 nM

O=C1NC(C(=O)O)CCc2cn(cn2)CCCCOc2ccc(Cl)c1c2 (racemic)
IC50 [2]: > 5000 nM
